Converted amounts (≈) assume the structure as drawn. Read-outs that look alike come from different tables or passages of the source.
Key:
Solubility in water = assay type: physicochemical
Source text: The water solubility of preferred compound 86 and the compound of Example 49 of WO 02/967654 A2 have been compared.

CDK13 = target: T1, CDK13 (Homo sapiens, UniProt Q14004); assay: Target selectivity profile (DiscoverX KinomeScan) CDK13; assay type: binding
T1 construct: purchased DiscoverX
Source text: 3. Target Selectivity Profile (DiscoverX KinomeScan)
According to an analysis of kinase inhibitory selectivity carried out in accordance with Karaman M W et al., Nat Biotechnol. 2008 January; 26(1):127-32. doi: 10.1038/nbt1358.

[1] = target: human ether-a-go-go-related gene (hERG)-encoded K+ channel (Homo sapiens, UniProt Q12809); assay: Medium-throughput electrophysiology based hERG assay; assay type: cell-based
Source text: In a medium-throughput electrophysiology based hERG assay carried out in accordance with Bridgland-Taylor M H et al., J Pharmacol Toxicol Methods. 2006 September-October; 54(2):189-99. Epub 2006 Mar. 6.

HCT116 (colon) = assay: In vitro proliferation screening (Sulforhodamin B) HCT116; assay type: cell-based, human; conditions: HCT116, 72 h
Source text: (§1) In order to evaluate the antitumor activity of the compounds of the present invention, in particular compound 86, in solid tumors, an in vitro proliferation screening in a panel of 10 different human cancer cell lines derived from solid tumors (see Table 5, below) as a model system.
(§2) Six 10-fold dilutions of compound 86 have been prepared in DMSO, from 5×10^−9 M to 5×10^−4. Single data points have been tested for each concentration. The final concentration of DMSO was 0.1%. The duration of the treatment was 72 hours. The growth inhibition was measured by using Sulforhodamin B, a protein-staining assay in accordance with Vichai V et. al. Nat. Protoc. 2006; 1(3):1112-6. Activity of the agents was determined by evaluating the following parameters: IC50, GI50, IC10, GI10, TGI, LC50, IC90 and GI90 (if these values could be calculated).

[2] = test system: HT1080 (connective tissue); assay: In vitro proliferation screening (Sulforhodamin B) HT1080; assay type: cell-based, human; conditions: HT1080, 72 h
Source text: as §1, §2

MDAMB468 (breast) = assay: In vitro proliferation screening (Sulforhodamin B) MDAMB468; assay type: cell-based; conditions: Homo sapiens, MDA-MB-468; MDAMB468, 72 h; unit M
Source text: as §1, §2

SKNAS (brain) = assay: In vitro proliferation screening (Sulforhodamin B) SKNAS; assay type: cell-based; conditions: Homo sapiens, SK-N-AS, 72 h, unit M
Source text: as §1, §2

UO31 (kidney) = assay: In vitro proliferation screening (Sulforhodamin B) UO31; assay type: cell-based, human; conditions: UO31, 72 h
Source text: as §1, §2

[3] = test system: LP-1 multiple myeloma cells; assay: Cell cycle analysis (propidium iodide FACS) LP1; assay type: cell-based
Source text: (§3) In order to investigate the mode of action (MOA) related to the antitumor activity of the compounds of the present invention (in particular compound 86) in solid tumors and multiple myeloma, two experimental strategies were used to confirm the postulated MOA: 1) monitoring of apoptosis induction and 2) cell cycle analysis upon treatment with compound 86. Three cancer cell lines (LP-1, (multiple myeloma cells, DSMZ ACC 41), A375 (melanoma cells), and HeLa (cervix carcinoma cells)) as well as control cells (HS-5 bone marrow stroma cells, ATCC CRL-11882) were used to obtain mechanistic insight into the antitumor activity of compound 86.
(§4) Measuring of DNA content in cells is a well-established method for monitoring cell proliferation, cell cycle, fragmentation of nuclei (apoptosis) and DNA ploidy. Proliferating cells progress through various phases of the cell cycle (G0, G1, S, G2, and M phase). At different stages of the cell cycle and life cycle, cell nuclei contain different amounts of DNA. The DNA content in cell nuclei was analyzed by propidium iodide (PI) staining and FACS analysis after 12 and 24 h of treatment with 100 nM of compound 86 in accordance with the method of Desai Brijal M. et. al. PLOS Vol. 8; Issue 3; p. 1-11, 2013.

A375 melanoma cells [4] = assay: Cell cycle analysis (propidium iodide FACS) A375; assay type: cell-based
Source text: as §3, §4

[5] = test system: HeLa cervix carcinoma cells; assay: Cell cycle analysis (propidium iodide FACS) HeLa; assay type: cell-based
Source text: as §3, §4

[6] = test system: LP-1 multiple myeloma cells; assay: PARP cleavage Western blot LP1; assay type: cell-based; conditions: LP1, 24 h, 100 nM, FIG. 1B legend 0.08 μM
Source text: as §3
(§5) Annexin V staining and Poly(ADP-ribose)-Polymerase 1 (PARP) protein cleavage was analyzed to identify a pro-apoptotic effect of compound 86 on tumor cells in accordance with the method of Koopman G, et. al. Blood 1994; 1; 84(5):1415-20. Annexin V allows the identification of cell surface changes that occur early during the apoptotic process by in situ detection, which is ideal for the analysis with adherent cells. Cleavage of PARP-1 by caspases is considered to be a hallmark of apoptosis and was therefore applied to monitor apoptosis induction after 24 h of treatment with 100 nM of compound 86.

[7] = test system: HeLa cervix carcinoma cells; assay: PARP cleavage Western blot HeLa; assay type: cell-based; conditions: 24 h, 100 nM, FIG. 1B legend 0.08 μM
Source text: as §3, §5

A375 melanoma cells [8] = assay: Annexin V/PI staining A375; assay type: cell-based; conditions: A375, 0.1 μM, 12 h and 24 h
Source text: as §3, §5

Chain of human ether-a-go-go-related gene (hERG)-encoded K+ channel (Q12809 whole entry): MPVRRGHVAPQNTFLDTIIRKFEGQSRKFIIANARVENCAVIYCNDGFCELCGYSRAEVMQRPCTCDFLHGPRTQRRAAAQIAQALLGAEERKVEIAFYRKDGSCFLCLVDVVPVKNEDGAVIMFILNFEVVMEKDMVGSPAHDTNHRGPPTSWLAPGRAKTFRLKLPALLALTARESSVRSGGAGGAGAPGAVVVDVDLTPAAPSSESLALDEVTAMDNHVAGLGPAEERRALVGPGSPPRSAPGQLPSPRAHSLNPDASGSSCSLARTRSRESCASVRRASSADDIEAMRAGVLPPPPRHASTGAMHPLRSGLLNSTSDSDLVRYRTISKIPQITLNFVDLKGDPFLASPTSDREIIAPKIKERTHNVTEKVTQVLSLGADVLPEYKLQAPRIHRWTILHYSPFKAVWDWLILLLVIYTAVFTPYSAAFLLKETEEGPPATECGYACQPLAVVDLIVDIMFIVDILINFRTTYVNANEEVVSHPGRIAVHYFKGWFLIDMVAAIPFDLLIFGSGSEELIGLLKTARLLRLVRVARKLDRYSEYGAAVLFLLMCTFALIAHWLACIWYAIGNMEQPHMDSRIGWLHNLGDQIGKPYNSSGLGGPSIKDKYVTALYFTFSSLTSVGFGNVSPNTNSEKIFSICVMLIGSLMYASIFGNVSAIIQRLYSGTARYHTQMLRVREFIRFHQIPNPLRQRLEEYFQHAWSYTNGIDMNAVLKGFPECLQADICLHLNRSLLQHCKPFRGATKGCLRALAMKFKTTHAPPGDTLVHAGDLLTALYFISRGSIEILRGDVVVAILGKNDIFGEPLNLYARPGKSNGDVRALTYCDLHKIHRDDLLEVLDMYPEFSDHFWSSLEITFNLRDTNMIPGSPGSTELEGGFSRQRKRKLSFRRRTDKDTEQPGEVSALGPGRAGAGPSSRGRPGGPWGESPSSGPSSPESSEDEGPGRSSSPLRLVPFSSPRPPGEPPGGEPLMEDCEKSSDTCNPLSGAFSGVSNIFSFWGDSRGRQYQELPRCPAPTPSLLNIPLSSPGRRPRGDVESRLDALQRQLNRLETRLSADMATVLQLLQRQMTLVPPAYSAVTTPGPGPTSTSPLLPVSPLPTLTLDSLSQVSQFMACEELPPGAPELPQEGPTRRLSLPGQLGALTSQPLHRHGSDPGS
T1 sequence (Q14004 whole entry): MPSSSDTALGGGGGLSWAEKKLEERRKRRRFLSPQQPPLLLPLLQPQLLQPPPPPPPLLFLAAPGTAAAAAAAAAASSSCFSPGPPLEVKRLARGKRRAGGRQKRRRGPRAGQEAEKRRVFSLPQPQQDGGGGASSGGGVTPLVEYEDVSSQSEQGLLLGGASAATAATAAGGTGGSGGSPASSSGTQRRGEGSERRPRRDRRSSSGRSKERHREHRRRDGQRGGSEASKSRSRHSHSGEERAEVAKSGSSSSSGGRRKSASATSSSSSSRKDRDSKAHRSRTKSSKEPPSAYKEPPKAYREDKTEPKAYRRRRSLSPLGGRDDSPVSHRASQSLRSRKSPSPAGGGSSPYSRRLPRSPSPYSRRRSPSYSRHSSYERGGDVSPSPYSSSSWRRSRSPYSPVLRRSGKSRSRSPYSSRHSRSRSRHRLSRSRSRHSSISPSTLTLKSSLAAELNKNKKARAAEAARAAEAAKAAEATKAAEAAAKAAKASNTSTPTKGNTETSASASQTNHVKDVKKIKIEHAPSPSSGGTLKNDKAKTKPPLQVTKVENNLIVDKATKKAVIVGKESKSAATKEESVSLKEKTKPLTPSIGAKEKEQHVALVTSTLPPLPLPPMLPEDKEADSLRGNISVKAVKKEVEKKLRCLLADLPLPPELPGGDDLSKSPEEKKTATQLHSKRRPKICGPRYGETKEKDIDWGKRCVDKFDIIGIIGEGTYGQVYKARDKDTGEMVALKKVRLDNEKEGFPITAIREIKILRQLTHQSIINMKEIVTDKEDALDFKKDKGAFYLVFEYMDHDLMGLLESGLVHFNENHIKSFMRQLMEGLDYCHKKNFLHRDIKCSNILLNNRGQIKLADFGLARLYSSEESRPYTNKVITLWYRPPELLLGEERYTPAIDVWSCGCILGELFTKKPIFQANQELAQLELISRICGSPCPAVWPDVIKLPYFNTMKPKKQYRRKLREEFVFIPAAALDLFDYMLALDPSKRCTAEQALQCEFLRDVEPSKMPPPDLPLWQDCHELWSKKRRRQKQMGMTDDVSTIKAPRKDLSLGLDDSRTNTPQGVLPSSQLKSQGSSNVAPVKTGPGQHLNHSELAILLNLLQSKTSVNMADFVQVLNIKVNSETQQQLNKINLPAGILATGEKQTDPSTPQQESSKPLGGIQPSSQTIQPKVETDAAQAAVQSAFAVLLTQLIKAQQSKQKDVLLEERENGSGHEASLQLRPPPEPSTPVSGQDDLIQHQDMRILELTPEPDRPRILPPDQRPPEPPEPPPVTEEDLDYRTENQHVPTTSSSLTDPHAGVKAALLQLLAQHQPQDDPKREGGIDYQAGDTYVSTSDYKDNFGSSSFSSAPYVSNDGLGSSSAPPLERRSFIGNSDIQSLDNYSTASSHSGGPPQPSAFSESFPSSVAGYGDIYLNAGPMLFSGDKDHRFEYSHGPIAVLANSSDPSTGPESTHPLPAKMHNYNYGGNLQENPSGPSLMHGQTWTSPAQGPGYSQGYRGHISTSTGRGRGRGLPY

## CCN(CC)CC(=O)Nc1ccc(Cc2nc3c(c(N(C)C)nn3-c3c(Cl)cc(S(N)(=O)=O)cc3Cl)c(=O)[nH]2)cc1 [Compound 86, N-{4-[1-(2,6-Dichloro-4-sulfamoyl-phenyl)-3-dimethylamino-4-oxo-4,5-dihydro-1H-pyrazolo[3,4-d]pyrimidin-6-ylmethyl]-phenyl}-2-diethylamino-acetamide]
Solubility in water; aqueous buffer, pH 2.0, read-out: Solubility in water at pH 2.0
  solubility: 129 µM (≈ 80.2 µg/mL)
Solubility in water; pH 7.4, aqueous buffer, read-out: Solubility in water at pH 7.4
  solubility: 105 µM (≈ 65.3 µg/mL)
CDK13
  kinase inhibitory selectivity: CDK13: active as inhibitors
[1]
  inhibitory activity on hERG K+ channel: did not display any inhibitory activity
HCT116 (colon); unit M
  GI50: 5.82 nM
HCT116 (colon); Homo sapiens, HCT-116, 72 h, rounded value of the conclusions
  GI50: 5.8 nM
HCT116 (colon); Homo sapiens, HCT-116, 72 h, unit M
  GI50: 5.82 nM
HCT116 (colon); Homo sapiens, HCT-116, unit M
  IC50: 6.05 nM
[2]
  growth inhibitory response in words: growth inhibition in the middle nanomolar range
[2]; Homo sapiens, HT-1080, unit M
  GI50: 36.4 nM
  IC50: 38 nM
MDAMB468 (breast)
  GI50: 38.9 nM
  IC50: 43 nM
SKNAS (brain)
  GI50: 41.2 nM
  IC50: 74.3 nM
UO31 (kidney); Homo sapiens, UO-31, unit M
  GI50: 339 nM
  IC50: 360 nM
UO31 (kidney)
  growth inhibitory response in words: responded rather weakly in the micromolar range
[3]; LP1, 0.1 μM, 12 and 24 h (FIG. 1A)
  cell cycle profile (DNA content): cell cycle defects and a progressive enrichment of the sub G1 group
[3]; LP1, 100 nM, 12 h
  cell cycle profile (DNA content): strong enrichment of nuclei in the sub_G1 fraction
[3]; LP1, 100 nM, 24 h
  cell cycle profile (DNA content): almost all intact nuclei of LP1 cells disappeared
A375 melanoma cells [4]; A375, 0.1 μM, 12 and 24 h (FIG. 1A)
  cell cycle profile (DNA content): cell cycle defects and a progressive enrichment of the sub G1 group
A375 melanoma cells [4]; A375, 100 nM, 12 h
  cell cycle profile (DNA content): G2/M arrest
A375 melanoma cells [4]; A375, 100 nM, 24 h
  cell cycle profile (DNA content): started to enrich in the sub_G1 fraction
[5]; 0.1 μM, 12 and 24 h (FIG. 1A)
  cell cycle profile (DNA content): cell cycle defects and a progressive enrichment of the sub G1 group
[5]; 100 nM, 12 h
  cell cycle profile (DNA content): unaffected
[5]; 100 nM, 24 h
  cell cycle profile (DNA content): clear response
[6]
  PARP cleavage: specific induction of PARP cleavage
[6]; listed as Otviciclib
  PARP cleavage: induction of PARP cleavage
[7]
  PARP cleavage: specific induction of PARP cleavage
[7]; listed as Otviciclib
  PARP cleavage: induction of PARP cleavage
A375 melanoma cells [8]
  induction of apoptosis (Annexin V/PI staining): specific induction of apoptosis
A375 melanoma cells [8]; listed as Otviciclib
  induction of apoptosis (Annexin V/PI staining): reproducible induction of apoptosis

Reference: patent US11091490B2, “3-amino-1,5-dihydro-pyrazolo[3,4-d]pyrimidin-4-ones as cyclin dependent kinase inhibitors” (Oncotyrol Center for Personalized Cancer Medicine GMBH, priority 2016, dated 2021)
